The source of these data is patent US20090170827A1, “Acid Addition Salt of Dihydropyridine Derivative” (Daiichi Sankyo Company , Limited, priority 2005, published 2009).

A word on the Cmax: it is the peak of the concentration-time curve.

One data set is described as follows: Thermal stability test. The data set is classed as physicochemical. The procedure:
The test compound was placed in a glass bottle and allowed to stand under the following conditions (1) and (2). After a certain period of time had elapsed, the residual rate of the active ingredient [compound (I)] in the test compound was measured by high performance liquid chromatography.
(1): Closed state, 60° C.;
(2): Non-closed state, 40° C., humidity 75%.
The measurement conditions in high performance liquid chromatography are as follows.
Column: L-column ODS [4.6 mm×250 mm, manufactured by Chemicals Evaluation and Research Institute, Japan]
Mobile layer: acetonitrile/22 mM potassium dihydrogenphosphate buffer/methanol=455/350/195 (V/V/V) (adjusted to pH 5.5 by phosphoric acid)
(§1) Column temperature: 40° C.
Detection wavelength: 220 nm
The residual rate (%) was calculated by the following formula.
The residual rate (%)=[1−(sum of peak area percentages of impurities and decomposed products)]×100

The nature of data set [1]: Elution test (JP paddle method, pH 1.2). The note with it: for Elution rate: pH 1.2, 900 ml, paddle 250 rpm, 100 mg equivalent/capsule. The format is physicochemical. The protocol:
A test was carried out using one gelatin capsule filled with the test compound (100 mg equivalent/capsule) and 900 ml of the disintegration test first solution (The Japanese Pharmacopoeia Fourteenth Edition, pH 1.2) as a test solution according to the elution test second method (The Japanese Pharmacopoeia Fourteenth Edition, paddle method) at 250 revolutions per minute. A sinker (The Japanese Pharmacopoeia Fourteenth Edition elution test method) was used for preventing flotation of the gelatin capsule. Five, 10, 15, 20, 30, 45, 60, 75, 90, 105 and 120 minutes after the start of the elution test, about 20 ml of the test solution was filtered through a filter having a pore size of 10 μm (manufactured by VARIAN, Full Flow Filters 10 μm) and directly fed into a flow cell (optical path length: 0.5 cm) in a circulating system. The absorbance was measured by a photodiode array spectrophotometer (HP 8452A). The absorbance of the compound (I) in each test solution at the time of collection of the test solution was compared with the absorbance of the following standard solution to measure the concentration of the compound (I) in the test solution.
The standard solution was prepared as follows. About 28 mg of the compound (I) was precisely weighed and added to a 500 ml volumetric flask. Five ml of ethanol (99.5%, special grade reagent) was added to the flask and the compound (I) was dissolved while providing ultrasonic stimulation as necessary. The disintegration test first solution was added to make the volume exactly 500 ml. The resulting solution was provided as the standard solution.
The elution test system is shown below.
Elution test device: DT-600 (manufactured by JASCO)
Ultraviolet visible spectrophotometer: HP 8452A Diodearray UV-Visible Spectrophotometer (manufactured by Hewlett Packard; now Agilent Technologies)
Cell positioner: HP 89075C Multicell Transport (manufactured by Hewlett Packard)
Delivery pump: HP 89092A Multichannel Pump (manufactured by Hewlett Packard)
Elution test software: Hewlett Packard Dissolution Testing Software, Revision 03.01 (manufactured by Hewlett Packard)
Analysis wavelength: 254 to 258 nm
Control wavelength: 322 to 326 nm
Optical path length of quartz cell: 0.5 cm

Data set [2] can be described thus: Absorbability test in dog. The format is in vivo, dog (male beagle). The note with it: for Cmax / AUC(0-t): fasted male beagle, tetragastrin-treated, oral gelatin capsule 100 mg/body, plasma; for AUC(0-t): read-out: AUC0-24 h. The procedure: Tetragastrin (6 μg/kg) was intramuscularly injected to the posterior region of thigh of a fasted male beagle (body weight: about 10 kg, n=4) to make the intragastric pH acidic 30 minutes before, immediately before and 30 minutes after administration of the test compound. The test compound was encapsulated in gelatin capsules at a dose of 100 mg/body and orally administered. About 3 ml of blood was collected from the median antebrachial vein using a heparin-treated glass syringe 0.5, 1, 2, 3, 4, 6, 8 and 24 hours after the administration. The collected blood was centrifuged to obtain plasma which was cryopreserved at −20° C. until measurement of the concentration of the test compound. One hundred μl of thawed plasma was mixed with 100 μl of 50% methanol, 800 μl of purified water, 100 μl of 0.1 N aqueous hydrochloric acid and 100 μl of an internal standard solution [a solution of the d7-compound (I) in 50% methanol, 50 ng/ml]. The eluate obtained by solid phase extraction using OASIS HLB was evaporated to dryness and then dissolved in 400 μl of 75% methanol. The solution was analyzed by LC/MS/MS.
A calibration curve was prepared by the same operation as above using 100 μl of dog control plasma without drug administration and 100 μl of a calibration curve standard solution [a solution of the compound (I) in 50% methanol, 0.1-1000 ng/ml].
The LC/MS/MS analysis conditions are shown below.
System: API4000 LC/MS/MS System (manufactured by
Applied Biosystems/MDS SCIEX)
Ion source: TurboIonSpray
Turbo heater gas: Air, 650° C., 70 psi
Nebulizer gas: Air, 70 psi
Orifice voltage: Compound (I) 106 V • d7-Compound (I) 106 V
Ion spray voltage: 5500 V
Collision energy: Compound (I) 35 V • d7-Compound (I) 35 V
Measurement mode: Positive/MRM
Monitor ion: Compound (I) m/z 583->167 • d7-Compound (I) m/z 590->167
System: Agilent 1100 Series (manufactured by Agilent Technologies)
Column: Inertsil ODS-3 5 μm, 2.1 mm I.D.×150 mm (manufactured by GL Sciences)
Mobile phase: Methanol/water/difluoroacetic acid (700/300/0.75)
as §1
The area under the concentration in plasma-time curve (AUC0-24h) and the maximum concentration in plasma (Cmax) as pharmacokinetic parameters indicative of drug absorbability were calculated from the results obtained according to the aforementioned method using the compound of Example 1 and the compound (I) as test compounds.

On to `Br.Br.CC1=C(C(=O)OC(C)C)C(c2cccc([N+](=O)[O-])c2)C(C(=O)OC2CN(C(c3ccccc3)c3ccccc3)C2)=C(N)N1` (single isomer, unassigned) [Example 1, 2-Amino-1,4-dihydro-6-methyl-4-(3-nitrophenyl)-3,5-pyridinedicarboxylic acid 3-(1-diphenylmethylazetidin-3-yl)ester 5-isopropyl ester dihydrobromide], for which the “Residual rate of Compound (I)” value was found to be 99.9% in “Thermal stability test” (Condition (1): closed state, 60° C., time 0 month); 99.7% in “Thermal stability test” (Condition (1): closed state, 60° C., time 1 month); 99.7% in “Thermal stability test” (Condition (1): closed state, 60° C., time 3 months); 99.6% in “Thermal stability test” (Condition (1): closed state, 60° C., time 6 months); 99.9% in the data set “Thermal stability test” (Condition (2): non-closed state, 40° C., humidity 75%, time 0 month); 99.5% in the data set “Thermal stability test” (Condition (2): non-closed state, 40° C., humidity 75%, time 1 month). Besides, the “Residual rate of Compound (I)” value is recorded as 99.1% in the data set “Thermal stability test” (Condition (2): non-closed state, 40° C., humidity 75%, time 3 months) and 98.9% in “Thermal stability test” (Condition (2): non-closed state, 40° C., humidity 75%, time 6 months). Besides, the “stability (in words)” value in “Thermal stability test” (Condition (2): non-closed state, 40° C., humidity 75%) is listed as “excellent stability”. Also, the Elution rate was 1.0% in data set [1] (5 min); 1.9% in data set [1] (10 min); 3.3% in data set [1] (15 min); 5.0% in data set [1] (20 min); 9.9% in data set [1] (30 min); 23.5% in data set [1] (45 min). The Elution rate in data set [1] (60 min) is on record as 35.5%; in data set [1] (75 min), 40.8%; in data set [1] (90 min) it was 45.1%; in data set [1] (105 min), 49.6%; in data set [1] (120 min), 52.6%. Further, in data set [1] (pH 1.2, compared with free compound (I)), the “elution properties (in words)” value was “superior to those of the free compound (I)”. The peak level in data set [2] (Cmax) was 248 ng/mL. Besides, in data set [2], the AUC(0-t) worked out at 2930 ng·h/mL. In data set [2] (oral, compared with free compound (I)), the “bioavailability and concentration in blood (AUC0-24h and Cmax), in words” value is given as “superior to those of the free compound (I)”.

In the case of `CC1=C(C(=O)OC(C)C)C(c2cccc([N+](=O)[O-])c2)C(C(=O)OC2CN(C(c3ccccc3)c3ccccc3)C2)=C(N)N1` (stereo not shown) [Compound (I), 2-Amino-1,4-dihydro-6-methyl-4-(3-nitrophenyl)-3,5-pyridinedicarboxylic acid 3-(1-diphenylmethylazetidin-3-yl) ester 5-isopropyl ester, reference compound], the Elution rate in data set [1] (5 min) came out at 0.5%; in data set [1] (10 min), 0.7%; in data set [1] (15 min), 1.0%; in data set [1] (20 min) it was 1.3%; in data set [1] (30 min), 1.8%; in data set [1] (45 min), 2.5%. The Elution rate was determined as 3.1% in data set [1] (60 min); 3.6% in data set [1] (75 min); 4.1% in data set [1] (90 min); 4.5% in data set [1] (105 min); 5.0% in data set [1] (120 min). Further, the peak level in data set [2] (Cmax) was 178 ng/mL. For the same compound, the AUC(0-t) in data set [2] worked out at 1810 ng·h/mL.
